Test results reported in paper PMC5703966, “Systemic clearance and brain distribution of carbazole-based cyanine compounds as Alzheimer’s disease drug candidates” (Scientific Reports, 2017).

Columns and labels:
[1] = Stability in plasma, microsomes without cofactors and deactivated hepatocytes; assay type: in vitro ADME; conditions: ICR/CD-1, mouse and human; all species, 37 °C, more than 4 hours; read-out: half-life elimination (t 1/2) in plasma, microsomes and deactivated hepatocytes
Experimental: page 4: Supplemental Methods Blood-to-plasma ratio […] and incubated for an hour at 37 OC. At the end of the incubation period, plasma (CP) is separated from […] folds acetonitrile (ACN) containing berberine chloride as internal standard (IS) by LC-MS/MS (Analytical method seen below). The blood cell partitioning was calculated as follows. (1) Plasma, liver microsomes and hepatocyte binding by RED device The stability of the compounds in plasma, liver microsomes and hepatocyte were studied to ensure the reliability of the binding data. Hepatocyte was deactivated by leaving them on a bench for 2 days and going through a freeze thaw cycle thereafter. […] were inactivated. All validation compounds were incubated at 37 °C over 4 h, and in triplicate. For […] […] Natural logarithm of peak area ratios (compound peak area normalized by IS peak area) were plotted against time and half-life calculated. […] Aliquots (100 µL) were removed from each side of the insert, and analyzed after protein precipitation using 4 folds acetonitrile (ACN) containing berberine chloride as internal standard (IS) by LC-MS/MS (Analytical me thod seen below). […] In vitro stability in liver microsomes and hepatocytes Half-life (t1/2) of SLM or SLOH in liver microsomes was determined in duplicate. […]

[2] = Liver microsomes stability with NADPH; assay type: in vitro ADME, mouse; conditions: for microsomal CLint at 1 μM: ICR/CD-1, liver microsomes, NADPH, read-out: Microsomes Cl int,app; for microsomal CLint at 1 μM / CLint scaled at 1 μM: pH 7.4; for CLint scaled at 1 μM: ICR/CD-1, mouse, liver microsomes, read-out: Microsomes Cl int,scaled; for Microsomes scaled Cl hep: well-stirred model; for Microsomes Cl u, int,app: Cl int,app / f u,mic
BCRP = biological target: T1, BCRP (Homo sapiens, UniProt Q9UNQ0); test: Efflux transporter identification in Caco-2 cell with BCRP specific inhibitors; conditions: efflux ratio reduced by fumitremorgin C and Ko134, concentration-dependent
T1 sequence (Q9UNQ0 1-655): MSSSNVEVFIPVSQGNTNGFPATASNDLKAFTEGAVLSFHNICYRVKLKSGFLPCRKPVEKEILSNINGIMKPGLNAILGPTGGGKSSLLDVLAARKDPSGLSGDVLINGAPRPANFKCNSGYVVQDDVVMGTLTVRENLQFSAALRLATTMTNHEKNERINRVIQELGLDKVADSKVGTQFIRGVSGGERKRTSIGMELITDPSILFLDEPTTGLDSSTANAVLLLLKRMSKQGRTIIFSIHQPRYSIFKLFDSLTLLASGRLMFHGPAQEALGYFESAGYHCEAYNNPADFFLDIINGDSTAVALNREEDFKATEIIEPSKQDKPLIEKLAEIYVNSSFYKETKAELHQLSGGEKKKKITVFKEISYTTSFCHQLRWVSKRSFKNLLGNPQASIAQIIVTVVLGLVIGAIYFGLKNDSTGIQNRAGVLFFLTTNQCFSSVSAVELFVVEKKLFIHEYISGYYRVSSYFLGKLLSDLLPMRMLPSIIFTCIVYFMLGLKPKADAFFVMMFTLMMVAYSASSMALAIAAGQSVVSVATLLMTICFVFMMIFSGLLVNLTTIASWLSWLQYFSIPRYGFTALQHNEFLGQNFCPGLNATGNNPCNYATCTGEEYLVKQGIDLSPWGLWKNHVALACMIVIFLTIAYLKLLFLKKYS

SMILES | half-life [1] [h] | microsomal CLint at 1 μM ([2]; mouse) [µL/min/mg] | CLint scaled at 1 μM [2] [mL/min/kg] | Microsomes scaled Cl hep ([2]; mouse) [mL/min/kg] | Microsomes Cl u, int,app ([2]; mouse) | BCRP substrate identification (BCRP) | Microsomes Cl u, int,scaled ([2]; mouse)
COCCOCCn1c2ccccc2c2cc(/C=C/c3cc[n+](C)c4ccccc34)ccc21.[I-] [SLM, (E)-4-(2-(9-(2-(2-methoxyethoxy)ethyl)-9H-carbazol-3-yl)-vinyl)-1-methyl-quinolin-1-iumiodide] | > 24 | 30 | 130 ± 9 | 16 ± 0.833 | 0.300 ± 0.0200^$$ mL/min/mg | substrates | –
COCCOCCn1c2ccccc2c2cc(/C=C/c3cc[n+](CCO)c4ccccc34)ccc21 [SLOH, (E)-1-(2-hydroxyethyl)-4-(2-(9-(2-(2-metho-xyethoxy)-ethyl)-9H-carbazol-3-yl)vinyl) quinolin-1-ium chloride] | > 24 | 30 | 110 ± 13 | 18.3 ± 1.67 | 0.170 ± 0.0200^$$ mL/min/mg | substrates | 680 ± 75.0^$$ mL/min/Kg
